The text below walks through data of patent EP4803513A1, “SUBSTITUTED QUINAZOLINE COMPOUND, PREPARATION METHOD THEREFOR, PHARMACEUTICAL COMBINATION THEREOF, AND USE THEREOF” (Hongyun Biotech Co., Ltd., priority 2023, dated 2025).

The subject of experiment [1] is BRK-BaF3 cells. The experiment is described as follows: Cell antiproliferative activity assay (CCK-8), BRK-BaF3. In kind it is cell-based. The note with it: 72 h, CCK-8, 3 days incubation. The method, then: (§1) The activity of compounds against BRK kinase can be evaluated by their inhibition of the growth of the BRK kinase-stably transfected BaF3 cell line (BRK-BaF3) and wild-type BaF3 cells (WT-BaF3). […] The larger the ratio of the half-maximal growth inhibitory concentration (IC50) of a compound between WT-BaF3 and BRK-BaF3 cells, the better the selectivity of the compound.
(§2) BRK-BaF3, WT-BaF3, WEHI cell line, and breast cancer cell line T47D were cultured using RPMI 1640 Basal medium or DMEM (Dulbecco's Modified Eagle Medium) (Shanghai Peiyuan Biotechnology, L220KJ), supplemented with 10% FBS (Gibco, REF 10099-141C) and 1% P/S (Shanghai Peiyuan Biotechnology, S110JV), in an incubator (Thermo 3020) at 37°C with 5% CO2. Cell viability was above 95%. Cells were passaged at a 3:1 ratio every 3-4 days. For WT-BaF3 cells, WEHI cells were first cultured, and their culture supernatant was filtered through a 0.22 µm filter. This supernatant was added at 10% to the regular culture medium to supplement IL-3 required for WT-BaF3 cell proliferation, which served as the culture medium for WT-BaF3. For testing, cells were first collected and counted, then prepared into a cell suspension at 100,000 cells/mL and plated at 100 µL per well. Drug concentrations started from 10 µM and were serially diluted 3:1. After incubation for 3 days, 20 µL of CCK-8 detection reagent (Targetmol C005) was added to each well. After incubation for 2-4 hours, OD450 was measured using a microplate reader (Varioskan LUX, Thermo Scientific). After subtracting the blank background, the curve was fitted and the IC50 was calculated using XLfit software.

Experiment [2] relates to WT-BaF3 cells. The experiment is described as follows: Cell antiproliferative activity assay (CCK-8), WT-BaF3 (broad-spectrum cytotoxicity). It counts as cell-based. Particulars: 72 h; WT-BaF3 cells (IL-3 supplemented), CCK-8, 3 days incubation. The method, then:
as §1, §2

Structures are written as SMILES. Where only a bound is given, the exact number is not on record here.

Consider `Cc1nn(CCO)cc1Nc1ncc2cc(-c3cccnc3C)cc(C(F)(F)F)c2n1` [I-76], for which the IC50 in experiment [1] is at most 20 nM; in experiment [2], over 2500 nM.

For `Cc1ccnc(C)c1-c1cc(C(F)(F)F)c2nc(Nc3cn(CCO)nc3C)ncc2c1` [I-77], the values for the IC50 in experiment [1] and in experiment [2] were at most 20 nM and 500 to 2500 nM, respectively.

`Cc1nn(CCO)cc1Nc1ncc2cc(-c3nccnc3F)cc(C(C)C)c2n1` [I-79]: the 50% inhibitory concentration (IC50) in experiment [1] was at most 20 nM; in experiment [2], 500 to 2500 nM.

With `COc1nccnc1-c1cc(C(C)C)c2nc(Nc3cn(CCO)nc3C)ncc2c1` [I-82], the figures for the 50% inhibitory concentration (IC50) in experiment [1] and in experiment [2] were 20 to 100 nM and 500 to 2500 nM, respectively.

In the case of `Cc1nn(CCO)cc1Nc1ncc2cc(-c3nccnc3N)cc(C(C)C)c2n1` [I-84], the IC50 in experiment [1] was at most 20 nM; in experiment [2], over 2500 nM.

With `Cc1cncc(-c2cc(C(C)C)c3nc(Nc4cn(CCO)nc4C)ncc3c2)n1` [I-90], the results for the IC50 in experiment [1] and in experiment [2] were at most 20 nM and 500 to 2500 nM, respectively.

Turning to `Cc1nn(CCO)cc1Nc1ncc2cc(-c3cncc(N)n3)cc(C(C)C)c2n1` [I-93], the IC50 in experiment [1] was 20 to 100 nM; in experiment [2] it was over 2500 nM.

With `Cc1cnc(C)c(-c2cc(C(C)C)c3nc(Nc4cn(CCO)nc4C)ncc3c2)n1` [I-96], the 50% inhibitory concentration (IC50) was 20 to 100 nM in experiment [1] and over 2500 nM in experiment [2].

On to `Cc1nccnc1-c1cc(C(C)C)c2nc(Nc3cnn(CCO)c3)ncc2c1` [I-97], for which the 50% inhibitory concentration (IC50) is at most 20 nM in experiment [1] and 500 to 2500 nM in experiment [2].

On to `Cc1nccnc1-c1cc(C(C)C)c2nc(Nc3cn(CCO)nc3C(F)F)ncc2c1` [I-99], for which the results for the IC50 in experiment [1] and in experiment [2] were at most 20 nM and 500 to 2500 nM, respectively.

`Cc1nn(CCCO)cc1Nc1ncc2cc(-c3nccnc3C)cc(C(C)C)c2n1` [I-100]: the half-maximal inhibitory concentration (IC50) in experiment [1] is at most 20 nM; in experiment [2], 500 to 2500 nM.

Consider `Cc1nn(CC(C)(C)O)cc1Nc1ncc2cc(-c3nccnc3C)cc(C(C)C)c2n1` [I-101], for which the IC50 in experiment [1] is at most 20 nM; in experiment [2], over 2500 nM.

For `Cc1nccnc1-c1cc(C(C)C)c2nc(Nc3cnn(CCO)c3C)ncc2c1` [I-102], the half-maximal inhibitory concentration (IC50) in experiment [1] is at most 20 nM; in experiment [2], over 2500 nM.

Take `Cc1nn(CCO)cc1Nc1ncc2cc(-c3nccnc3C)cc(C3CC3)c2n1` [I-103]: the 50% inhibitory concentration (IC50) in experiment [1] was at most 20 nM; in experiment [2], 500 to 2500 nM.

As for `Cc1nn(CCO)cc1Nc1ncc2cc(-c3nccnc3Cl)cc(C3CC3)c2n1` [I-104], the values for the IC50 in experiment [1] and in experiment [2] were at most 20 nM and over 2500 nM, respectively.

For the compound `Cc1nn(CCO)cc1Nc1ncc2cc(-c3nccnc3N)cc(C3CC3)c2n1` [I-105], the concentration for half-maximal inhibition (IC50) in experiment [1] is at most 20 nM; in experiment [2], 500 to 2500 nM.

With `Cc1nccnc1-c1cc(C2CC2)c2nc(Nc3cnn(CCO)c3)ncc2c1` [I-107], the 50% inhibitory concentration (IC50) in experiment [1] was at most 20 nM; in experiment [2], 500 to 2500 nM.

As for `Cc1nccnc1-c1cc(C(F)(F)F)c2nc(Nc3cnn(CCO)c3)ncc2c1` [I-110], the half-maximal inhibitory concentration (IC50) in experiment [1] is at most 20 nM; in experiment [2] it was over 2500 nM.

For the compound `Cc1nn(CCO)cc1Nc1ncc2cc(-c3nnccc3C#N)cc(C(C)C)c2n1` [I-117], the figures for the IC50 in experiment [1] and in experiment [2] were 20 to 100 nM and over 2500 nM, respectively.

In the case of `Cc1nn(CCO)cc1Nc1ncc2cc(-c3nnccc3C#N)cc(C3CC3)c2n1` [I-118], the 50% inhibitory concentration (IC50) was 20 to 100 nM in experiment [1] and over 2500 nM in experiment [2].

Take `Cc1ccnnc1-c1cc(C(F)(F)F)c2nc(Nc3cn(CCO)nc3C)ncc2c1` [I-122]: the half-maximal inhibitory concentration (IC50) was at most 20 nM in experiment [1] and 500 to 2500 nM in experiment [2].

As for `Cc1nn(CCO)cc1Nc1ncc2cc(-c3cncnc3)cc(C(C)C)c2n1` [I-123], the 50% inhibitory concentration (IC50) in experiment [1] fell in the range of 20 to 100 nM; in experiment [2], 500 to 2500 nM.

As to `Cc1nn(CCO)cc1Nc1ncc2cc(-c3cncnc3N)cc(C(C)C)c2n1` [I-124], the IC50 was 20 to 100 nM in experiment [1] and over 2500 nM in experiment [2].

Take `Cc1nn(CCO)cc1Nc1ncc2cc(-c3c(C)ncnc3Cl)cc(C(C)C)c2n1` [I-127]: the IC50 in experiment [1] was at most 20 nM; in experiment [2] it was over 2500 nM.

For `Cc1nn(CCO)cc1Nc1ncc2cc(-c3c(C)ncnc3C)cc(C(C)C)c2n1` [I-128], the IC50 in experiment [1] was at most 20 nM; in experiment [2], over 2500 nM.

Take `Cc1nn(CCO)cc1Nc1ncc2cc(-c3c(C)ncnc3N)cc(C(C)C)c2n1` [I-129]: the IC50 in experiment [1] was 20 to 100 nM; in experiment [2] it was over 2500 nM.

`Cc1nn(CCO)cc1Nc1ncc2cc(-c3c(C)ncnc3O)cc(C(C)C)c2n1` [I-130]: the half-maximal inhibitory concentration (IC50) in experiment [1] was 20 to 100 nM; in experiment [2], over 2500 nM.

With `COc1ncnc(C)c1-c1cc(C(C)C)c2nc(Nc3cn(CCO)nc3C)ncc2c1` [I-131], the concentration for half-maximal inhibition (IC50) in experiment [1] is at most 20 nM; in experiment [2], over 2500 nM.

On to `Cc1nn(CCO)cc1Nc1ncc2cc(-c3ncnc(C)c3Br)cc(C(C)C)c2n1` [I-139], for which the IC50 in experiment [1] is at most 20 nM; in experiment [2], 500 to 2500 nM.

As for `Cc1ncnc(C)c1-c1cc(C(C)C)c2nc(Nc3cn(CCO)nc3C(F)F)ncc2c1` [I-141], the concentration for half-maximal inhibition (IC50) in experiment [1] is 20 to 100 nM; in experiment [2] it was over 2500 nM.

For the compound `Cc1nn(CCCO)cc1Nc1ncc2cc(-c3c(C)ncnc3C)cc(C(C)C)c2n1` [I-142], the IC50 in experiment [1] was at most 20 nM; in experiment [2], over 2500 nM.

As to `Cc1ncnc(C)c1-c1cc(C(C)C)c2nc(Nc3cn(CCO)nc3Cl)ncc2c1` [I-143], the 50% inhibitory concentration (IC50) in experiment [1] was 20 to 100 nM; in experiment [2], over 2500 nM.

Turning to `Cc1nn(CC(C)(C)O)cc1Nc1ncc2cc(-c3c(C)ncnc3C)cc(C(C)C)c2n1` [I-144], the IC50 in experiment [1] is at most 20 nM; in experiment [2], over 2500 nM.

Consider `Cc1cncnc1-c1cc(C2CC2)c2nc(Nc3cn(CCO)nc3C)ncc2c1` [I-148], for which the IC50 was at most 20 nM in experiment [1] and over 2500 nM in experiment [2].

Regarding `Cc1ncnc(C)c1-c1cc(C(F)(F)F)c2nc(Nc3cnn(CCO)c3)ncc2c1` [I-149], the IC50 was 20 to 100 nM in experiment [1] and over 2500 nM in experiment [2].

Take `Cc1nn(CCO)cc1Nc1ncc2cc(-c3c(C)ncnc3C)cc(C(F)(F)F)c2n1` [I-150]: the IC50 was at most 20 nM in experiment [1] and over 2500 nM in experiment [2].

As for `Cc1nn(CCO)cc1Nc1ncc2cc(-c3cncnc3)cc(C(F)(F)F)c2n1` [I-151], the half-inhibitory concentration (IC50) in experiment [1] was 20 to 100 nM; in experiment [2] it was over 2500 nM.

For `Cc1nn(CCO)cc1Nc1ncc2cc(-c3cncnc3C)cc(C(F)(F)F)c2n1` [I-152], the figures for the IC50 in experiment [1] and in experiment [2] were at most 20 nM and over 2500 nM, respectively.

In the case of `COc1ncncc1-c1cc(C(F)(F)F)c2nc(Nc3cn(CCO)nc3C)ncc2c1` [I-153], the IC50 in experiment [1] was at most 20 nM; in experiment [2], over 2500 nM.

Regarding `Cc1nn(CCO)cc1Nc1ncc2cc(-c3c(O)cccc3F)cc(C(C)C)c2n1` [I-155], the results for the IC50 in experiment [1] and in experiment [2] were at most 20 nM and 500 to 2500 nM, respectively.

Regarding `Cc1ccc(C#N)cc1-c1cc(C(C)C)c2nc(Nc3cnn(CCO)c3C)ncc2c1` [I-170], the IC50 in experiment [1] is at most 20 nM; in experiment [2], over 2500 nM.

`Cc1c[nH]c(=O)cc1-c1cc(C(C)C)c2nc(Nc3cnn(CCO)c3C)ncc2c1` [I-181]: the IC50 in experiment [1] is 20 to 100 nM; in experiment [2], over 2500 nM.

As to `Cc1nn(CCO)cc1Nc1ncc2cc(-c3cn(C)nc3C)cc(C(C)C)c2n1` [I-188], the IC50 was at most 20 nM in experiment [1] and 500 to 2500 nM in experiment [2].

On to `Cc1cn(C)nc1-c1cc(C(C)C)c2nc(Nc3cn(CCO)nc3C)ncc2c1` [I-190], for which the IC50 in experiment [1] was at most 20 nM; in experiment [2] it was 500 to 2500 nM.

In the case of `Cc1cnn(C)c1-c1cc(C(C)C)c2nc(Nc3cn(CCO)nc3C)ncc2c1` [I-191], the IC50 in experiment [1] is at most 20 nM; in experiment [2], 500 to 2500 nM.

By IC50 is commonly meant the concentration at which inhibition is half-maximal. Low values mean greater potency in that assay, high ones weaker potency in that assay.
